Test results taken from patent US20250122166A1, “SUBSTITUTED N-((2-(2,6-DIOXOPIPERIDIN-3-YL)-1-OXOISOINDOLIN-4-YL)METHYL)BENZAMIDE ANALOGS AS MODULATORS OF CEREBLON PROTEIN” (ST. JUDE CHILDREN'S RESEARCH HOSPITAL, INC., priority 2021, published 2025).

Tests used:
MOLM-13 cells = experiment: Cell proliferation assay (Cell Titer-Glo, 72 h); format: cell-based; conditions: Homo sapiens, 72 h incubation, * = cytostatic 50%
Protocol: MOLM-13 cell line was purchased from the Leibniz Institute DSMZ (ACC 554). The cells were cultured according to recommendations in RPMI 1640 cell culture media with 20% FBS (DSMZ). Exponentially growing MOLM-13 cells were plated at 1250 cells per well in Corning 8804BC white 384-well assay plates and incubated overnight at 37° C. in a humidified 5% CO2 incubator. Compounds were transferred to the assay plate from a dose-response plate using a Pintool on a Biomek FXP Laboratory Automation Workstation (Beckman Coulter). Cytotoxicity was determined following 72 hours of incubation using Promega Cell Titer Glo reagent according to the manufacturer's recommendation. Luminescence was measured on an Envision plate reader (Perkin-Elmer).
Compounds were screened in human cancer cell lines and each cell line was cultured in the complete medium recommended by the vendor and seeded in Corning 8804BC white 384-well assay plates at density of 1250 cells per well for MOLM-13 cells. After overnight incubation at 37° C. in a humidified 5% CO2 incubator, cells were treated with compounds in dose-response format using a Pintool on a Biomek FXP Laboratory Automation Workstation (Beckman Coulter). After 72h incubation, cell proliferation was assessed using Cell Titer-Glo (CTG) luminescent cell viability assay (Promega) according to the manufacturer's instruction. Luminescence signal was measured using an Envision plate reader (Perkin-Elmer).

6XHis-CRBN-DDB1 protein = 6XHis-CRBN-DDB1 protein (Homo sapiens (Human), UniProt Q96SW2); experiment: CRBN fluorescence polarization assay (competitive, Cy5-O-Len probe); format: binding; conditions: 6XHis-CRBN-DDB1 200 nM, Cy5-O-Len probe 30 nM, 1 hour; mean of three determinations; read-out: CRBN FP (IC50)
Protocol: In this competitive fluorescent polarization assay Cy5 conjugated lenalidomide analog (Cy5—O-Len)^1 was used as a fluorescent probe. 6XHis-CRBN-DDB1 protein (200 nM) and Cy5—O-Len probe (30 nM) were combined in 20 mM HEPES pH 7, 150 mM NaCl, 0.005% Tween-20 assay buffer. 20 μL of this assay cocktail was dispensed into wells of Corning 3821 black 384-well plates. Compounds were transferred to the assay plate from a dose-response plate using a Pintool on a Biomek FXP Laboratory Automation Workstation (Beckman Coulter). The plates were incubated in the dark for 1 hour at room temperature and then read on an Envision plate reader (PerkinElmer, Massachusetts, USA). IC50 values were determined using a proprietary software RISE (Robust Investigation of Screening Experiments), developed in house on the Pipeline Pilot platform (Biovia, v. 17.2.0). Data represent the mean of three independent determinations.

SMILES | EC50 (MOLM-13 cells) | IC50 (6XHis-CRBN-DDB1 protein)
COc1cccc(C(=O)NCc2cccc3c2CN(C2CCC(=O)NC2=O)C3=O)c1 (centres unmarked) [Compound 1, N-((2-(2,6-dioxopiperidin-3-yl)-1-oxoisoindolin-4-yl)methyl)-3-methoxybenzamide] | < 1000 nM | 1000 to 10000 nM
O=C1CCC(N2Cc3c(CNC(=O)c4ccco4)cccc3C2=O)C(=O)N1 (centres unmarked) [Compound 2, N-((2-(2,6-dioxopiperidin-3-yl)-1-oxoisoindolin-4-yl)methyl)furan-2-carboxamide] | > 10000 nM | –
O=C1CCC(N2Cc3c(CNC(=O)c4cccc(Cl)c4)cccc3C2=O)C(=O)N1 (centres unmarked) [Compound 3, 3-chloro-N-((2-(2,6-dioxopiperidin-3-yl)-1-oxoisoindolin-4-yl)methyl)benzamide] | < 1000 nM | < 1000 nM
O=C1CCC(N2Cc3c(CNC(=O)c4ccccc4C(F)(F)F)cccc3C2=O)C(=O)N1 (centres unmarked) [Compound 4, N-((2-(2,6-dioxopiperidin-3-yl)-1-oxoisoindolin-4-yl)methyl)-2-(trifluoromethyl)benzamide] | > 10000 nM | 1000 to 10000 nM
O=C1CCC(N2Cc3c(CNC(=O)c4ccc(Cl)cc4)cccc3C2=O)C(=O)N1 (centres unmarked) [Compound 5, 4-chloro-N-((2-(2,6-dioxopiperidin-3-yl)-1-oxoisoindolin-4-yl)methyl)benzamide] | < 1000 nM | 1000 to 10000 nM
O=C1CCC(N2Cc3c(CNC(=O)c4ccncc4)cccc3C2=O)C(=O)N1 (centres unmarked) [Compound 6, N-((2-(2,6-dioxopiperidin-3-yl)-1-oxoisoindolin-4-yl)methyl)isonicotinamide] | > 10000 nM | –
O=C1CCC(N2Cc3c(CNC(=O)c4ccc(F)cc4)cccc3C2=O)C(=O)N1 (centres unmarked) [Compound 7, N-((2-(2,6-dioxopiperidin-3-yl)-1-oxoisoindolin-4-yl)methyl)-4-fluorobenzamide] | < 1000 nM | 1000 to 10000 nM
O=C1CCC(N2Cc3c(CNC(=O)c4cccnc4)cccc3C2=O)C(=O)N1 (centres unmarked) [Compound 8, N-((2-(2,6-dioxopiperidin-3-yl)-1-oxoisoindolin-4-yl)methyl)nicotinamide] | > 10000 nM | –
O=C1CCC(N2Cc3c(CNC(=O)c4cccc(F)c4)cccc3C2=O)C(=O)N1 (centres unmarked) [Compound 9, N-((2-(2,6-dioxopiperidin-3-yl)-1-oxoisoindolin-4-yl)methyl)-3-fluorobenzamide] | < 1000 nM | 1000 to 10000 nM
O=C1CCC(N2Cc3c(CNC(=O)c4ccccc4)cccc3C2=O)C(=O)N1 (centres unmarked) [Compound 10, N-((2-(2,6-dioxopiperidin-3-yl)-1-oxoisoindolin-4-yl)methyl)benzamide] | 1000 to 10000 nM | –
Cc1ccc(C(=O)NCc2cccc3c2CN(C2CCC(=O)NC2=O)C3=O)cc1 (centres unmarked) [Compound 11, N-((2-(2,6-dioxopiperidin-3-yl)-1-oxoisoindolin-4-yl)methyl)-4-methylbenzamide] | 1000 to 10000 nM | –
O=C1CCC(N2Cc3c(CNC(=O)c4cccc(C(F)(F)F)c4)cccc3C2=O)C(=O)N1 (centres unmarked) [Compound 12, N-((2-(2,6-dioxopiperidin-3-yl)-1-oxoisoindolin-4-yl)methyl)-3-(trifluoromethyl)benzamide] | < 1000 nM | 1000 to 10000 nM
O=C1CCC(N2Cc3c(CNC(=O)c4ccc(C(F)(F)F)cc4)cccc3C2=O)C(=O)N1 (centres unmarked) [Compound 13, N-((2-(2,6-dioxopiperidin-3-yl)-1-oxoisoindolin-4-yl)methyl)-4-(trifluoromethyl)benzamide] | < 1000 nM | 1000 to 10000 nM
O=C1CCC(N2Cc3c(CNC(=O)c4ccc(Cl)c(Cl)c4)cccc3C2=O)C(=O)N1 (centres unmarked) [Compound 14, 3,4-dichloro-N-((2-(2,6-dioxopiperidin-3-yl)-1-oxoisoindolin-4-yl)methyl)benzamide] | < 1000 nM | –
O=C1CCC(N2Cc3c(CNC(=O)c4ccc(F)c(Cl)c4)cccc3C2=O)C(=O)N1 (centres unmarked) [Compound 15, 3-chloro-N-((2-(2,6-dioxopiperidin-3-yl)-1-oxoisoindolin-4-yl)methyl)-4-fluorobenzamide] | < 1000 nM | < 1000 nM
O=C1CCC(N2Cc3c(CNC(=O)c4ccc(C(F)(F)F)c(F)c4)cccc3C2=O)C(=O)N1 (centres unmarked) [Compound 16, N-((2-(2,6-dioxopiperidin-3-yl)-1-oxoisoindolin-4-yl)methyl)-3-fluoro-4-(trifluoromethyl)benzamide] | < 1000 nM | 1000 to 10000 nM

SMILES | EC50 (MOLM-13 cells) | IC50 (6XHis-CRBN-DDB1 protein)
O=C1CCC(N2Cc3c(CNC(=O)c4ccc(F)cc4Cl)cccc3C2=O)C(=O)N1 (centres unmarked) [Compound 17, 2-chloro-N-((2-(2,6-dioxopiperidin-3-yl)-1-oxoisoindolin-4-yl)methyl)-4-fluorobenzamide] | < 1000 nM | 1000 to 10000 nM
O=C1CCC(N2Cc3c(CNC(=O)c4ccc(Br)cc4)cccc3C2=O)C(=O)N1 (centres unmarked) [Compound 18, 4-bromo-N-((2-(2,6-dioxopiperidin-3-yl)-1-oxoisoindolin-4-yl)methyl)benzamide] | < 1000 nM | –
O=C1CCC(N2Cc3c(CNC(=O)c4ccc(Cl)c(F)c4)cccc3C2=O)C(=O)N1 (centres unmarked) [Compound 19, 4-chloro-N-((2-(2,6-dioxopiperidin-3-yl)-1-oxoisoindolin-4-yl)methyl)-3-fluorobenzamide] | < 1000 nM | 1000 to 10000 nM
O=C1CCC(N2Cc3c(CNC(=O)c4cccc(OC(F)(F)F)c4)cccc3C2=O)C(=O)N1 (centres unmarked) [Compound 20, N-((2-(2,6-dioxopiperidin-3-yl)-1-oxoisoindolin-4-yl)methyl)-3-(trifluoromethoxy)benzamide] | < 1000 nM | 1000 to 10000 nM
O=C1CCC(N2Cc3c(CNC(=O)c4ccc(Cl)c(C(F)(F)F)c4)cccc3C2=O)C(=O)N1 (centres unmarked) [Compound 21, 4-chloro-N-((2-(2,6-dioxopiperidin-3-yl)-1-oxoisoindolin-4-yl)methyl)-3-(trifluoromethyl)benzamide] | < 1000 nM | –
O=C1CCC(N2Cc3c(CNC(=O)c4ccc(F)c(C(F)(F)F)c4)cccc3C2=O)C(=O)N1 (centres unmarked) [Compound 22, N-((2-(2,6-dioxopiperidin-3-yl)-1-oxoisoindolin-4-yl)methyl)-4-fluoro-3-(trifluoromethyl)benzamide] | < 1000 nM | < 1000 nM
O=C1CCC(N2Cc3c(CNC(=O)c4cccc(C(F)F)c4)cccc3C2=O)C(=O)N1 (centres unmarked) [Compound 23, 3-(difluoromethyl)-N-((2-(2,6-dioxopiperidin-3-yl)-1-oxoisoindolin-4-yl)methyl)benzamide] | < 1000 nM | 1000 to 10000 nM
O=C1CCC(N2Cc3c(CNC(=O)c4ccc(C(F)F)cc4)cccc3C2=O)C(=O)N1 (centres unmarked) [Compound 24, 4-(difluoromethyl)-N-((2-(2,6-dioxopiperidin-3-yl)-1-oxoisoindolin-4-yl)methyl)benzamide] | < 1000 nM | 1000 to 10000 nM
COc1ccc(C(=O)NCc2cccc3c2CN(C2CCC(=O)NC2=O)C3=O)cc1 (centres unmarked) [Compound 25, N-((2-(2,6-dioxopiperidin-3-yl)-1-oxoisoindolin-4-yl)methyl)-4-methoxybenzamide] | > 10000 nM | > 10000 nM
N#Cc1cccc(C(=O)NCc2cccc3c2CN(C2CCC(=O)NC2=O)C3=O)c1 (centres unmarked) [Compound 26, 3-cyano-N-((2-(2,6-dioxopiperidin-3-yl)-1-oxoisoindolin-4-yl)methyl)benzamide] | < 1000 nM | < 1000 nM
O=C1CCC(N2Cc3c(CNC(=O)c4cccs4)cccc3C2=O)C(=O)N1 (centres unmarked) [Compound 27, N-((2-(2,6-dioxopiperidin-3-yl)-1-oxoisoindolin-4-yl)methyl)thiophene-2-carboxamide] | > 10000 nM | < 1000 nM
O=C1CCC(N2Cc3c(CNC(=O)c4ccc(Cl)cc4Cl)cccc3C2=O)C(=O)N1 (centres unmarked) [Compound 28, 2,4-dichloro-N-((2-(2,6-dioxopiperidin-3-yl)-1-oxoisoindolin-4-yl)methyl)benzamide] | > 10000 nM | –
COc1ccccc1C(=O)NCc1cccc2c1CN(C1CCC(=O)NC1=O)C2=O (centres unmarked) [Compound 29, N-((2-(2,6-dioxopiperidin-3-yl)-1-oxoisoindolin-4-yl)methyl)-2-methoxybenzamide] | < 1000 nM | 1000 to 10000 nM
CCCc1ccc(C(=O)NCc2cccc3c2CN(C2CCC(=O)NC2=O)C3=O)cc1 (centres unmarked) [Compound 30, N-((2-(2,6-dioxopiperidin-3-yl)-1-oxoisoindolin-4-yl)methyl)-4-propylbenzamide] | < 1000 nM | < 1000 nM
O=C1CCC(N2Cc3c(CNC(=O)c4ccccc4F)cccc3C2=O)C(=O)N1 (centres unmarked) [Compound 31, N-((2-(2,6-dioxopiperidin-3-yl)-1-oxoisoindolin-4-yl)methyl)-2-fluorobenzamide] | > 10000 nM | 1000 to 10000 nM
